Source: patent publication US6270389A, “Method for forming an electron-emitting device using a metal-containing composition” (priority 1995, dated 2001)

Experiments:
[1] = Thermogravimetric analysis (TG) in the air; format: physicochemical; settings: for Decomp. Start.: Table 1
[2] = Electron-emitting characteristics of device measured with measurement evaluation apparatus; settings: Table 1
Text: FIG. 4 is a schematic block diagram of an arrangement comprising a vacuum chamber that can be used as a measuring system for determining the performance of an electron-emitting device of the type under consideration.
Referring to FIG. 4, those components that are similar to or same as those of FIGS. 1A and 1B are denoted by the same reference symbols. The measuring system includes a vacuum chamber 45 and a vacuum pump 46. An electron-emitting device is placed in the vacuum chamber 45. The device comprises a substrate 1, a pair of device electrodes 2 and 3, an electroconductive thin film 4 and an electron-emitting region 5. Otherwise, the measuring system has a power source 41 for applying a device voltage Vf to the device, an ammeter 40 for metering the device current If running through the thin film 4 between the device electrodes 2 and 3, an anode 44 for capturing the emission current Ie produced by electrons emitted from the electron-emitting region of the device, a high voltage source 43 for applying a voltage to the anode 44 of the measuring system and another ammeter 42 for metering the emission current Ie produced by electrons emitted from the electron-emitting region 5 of the device. For determining the performance of the electron-emitting device, a voltage between 1 and 10 KV may be applied to the anode, which is spaced apart from the electron emitting device by distance H which is between 2 and 8 mm.
The electron-emitting characteristics of the electron-emitting device formed as described above were evaluated by using the measurement evaluation apparatus in FIG. 4. Note that, in this example, the distance between an anode and the electron-emitting device was set to be 4 mm, and the potential of the anode was set to be 1 kV. The degree of vacuum in the vacuum apparatus in measurement of the electron-emitting characteristics was 10^-8 torr.
The measurement evaluation apparatus described above was used, and a device voltage was applied across the electrodes 2 and 3 of the electron-emittingdevice. When a device current If and an emission current Ie flowing at this time were measured, current-voltage characteristics shown in FIG. 5 were obtained. In this device, the emission current Ie began to increase from a device voltage of about 6.3 V, and the device current If became 1.9 mA at the device voltage of 14 V. At this time, the emission current Ie of 0.7 μA was obtained.
The electron-emitting characteristics of the device manufactured as described above were measured. FIG. 4 is a schematic view showing the arrangement of a measurement evaluation apparatus. Reference numerals in FIG. 4 follow the reference numerals in the above examples. Note that, in this example, the distance between an anode and the electron-emitting device was set to be 4 mm, the potential of the anode was set to be 1 KV, and the degree of vacuum in a vacuum apparatus in measurement of the electron-emitting characteristics was set to be 10^-6 torr.
The measurement evaluation apparatus described above was used, and a device voltage was applied across the electrodes 2 and 3 of the electron-emittingdevice. When a device current If and an emission current Ie flowing at this time were measured, current-voltage characteristics shown in FIG. 5 were obtained. In the device in this example, the emission current Ie begun to sharply increase from a device voltage of about 8 V, the device current If and the emission current Ie respectively became 2.3 mA and 1.2 μA at the device voltage of 16 V, and electron-emitting efficiency .eta.=Ie/If (%) was 0.05%.
Note that, in this example, the distance between an anode and the electron-emitting device was set to be 4 mm, the potential of the anode was set to be 1 KV, and the degree of vacuum in a vacuum apparatus in measurement of the electron-emitting characteristics was set to be 10^-7 torr. […]

[3] = water
[4] = X-ray diffraction
[5] = scanning type differential thermal analysis in the air

| Molecule | Decomp. Start. [1] [°C] | Ie [2] [mA] | Ie/If [2] [%] | If [2] [mA] | Solubility [3] [Pdwt %] | temperature at which decomposition ended ([1]; TG in the air) [°C] | other results |
| --- | --- | --- | --- | --- | --- | --- | --- |
| CC(=O)[O-].CC(=O)[O-].NCCCO.NCCCO.NCCCO.NCCCO.[Pd+2] [Ex. 19] | 173 | 1.1 | 0.041 | 2.7 |  |  |  |
| CC(=O)[O-].CC(=O)[O-].NCCCCO.NCCCCO.NCCCCO.NCCCCO.[Pd+2] [Ex. 20] | 186 |  | 0.052 | 2.3 | 10.5 |  |  |
| CC(=O)[O-].CC(=O)[O-].CNCCO.CNCCO.[Pd+2] [Ex. 22] | 155 | 1.3 | 0.045 | 2.9 | 16.0 |  |  |
| CC(=O)[O-].CC(=O)[O-].CCNCCO.CCNCCO.[Pd+2] [Ex. 23] | 153 | 1.1 | 0.042 | 2.6 | 8.4 |  |  |
| CC(=O)[O-].CC(=O)[O-].CCCNCCO.CCCNCCO.[Pd+2] [Ex. 24] | 154 | 1.0 | 0.038 | 2.6 | 4.0 |  |  |
| CC(=O)[O-].CC(=O)[O-].CC(C)NCCO.CC(C)NCCO.[Pd+2] [Ex. 25] | 155 | 1.1 | 0.039 | 2.8 | 3.7 |  |  |
| CC(=O)[O-].CC(=O)[O-].CC(C)(C)NCCO.CC(C)(C)NCCO.[Pd+2] [Ex. 26] | 166 | 1.0 | 0.040 | 2.5 | 0.7 |  |  |
| CC(=O)[O-].CC(=O)[O-].NCCCO.NCCCO.[Ni+2] [NAMP, nickel acetate-bis(3-amino-propanol)] |  |  |  |  |  | 393 |  |
| CC(=O)[O-].CC(=O)[O-].CC(O)CN.CC(O)CN.[Ni+2] (centres unmarked) [NAMiP, nickel acetate-bis(1-amino-2-propanol)] |  |  |  |  |  | 406 |  |
| CC(=O)[O-].CC(=O)[O-].CNCCO.CNCCO.[Ni+2] [NANME, nickel acetate-bis(N-methylethanolamine)] |  |  |  |  |  | 379 |  |
| NCCO.NCCO.NCCO.O.O.O=C[O-].O=C[O-].[Ni+2] [NFME, nickel formate-tris(ethanolamine)-2-hydrate] |  |  |  |  |  | 403 |  |
| CC(=O)[O-].CC(=O)[O-].NCCO.NCCO.NCCO.NCCO.[Pd+2] [PA-ME, palladium acetate-monoethanolamine complex] |  |  |  |  |  | 310 | decomposition start temperature ([1]; TG in the air): 100 °C; sublimation properties ([1]; TG in the air): no sublimation properties; residue weight at 350° C., in words ([1]; TG in the air, 350° C.): equal to a theoretical weight; crystallinity of dried thin film [4]: non-crystallized; decomposition temperature [5]: 272 °C |
| nickel acetate-bis(N-butylethanolamine) [NABE] |  |  |  |  |  | 395 |  |
| palladium acetate bis(dipropylamine) [reference compound] |  |  |  |  |  |  | palladium lost in thermal decomposition ([1]; TG in the atmosphere): 29%; weight reduction end temperature ([1]; TG in the atmosphere): 250 °C; weight reduction start temperature ([1]; TG in the atmosphere): 122 °C; residue weight at 350° C. relative to theoretical weight ([1]; TG in the atmosphere, 350° C.): 71% |
| palladium acetate-bis(N,N-dibutylethanolamine) [PADBE] |  |  |  |  |  | 253 |  |
| palladium acetate-di(N-butylethanolamine) [PABE] |  |  |  |  |  | 245 |  |
| palladium acetate-diethanolamine complex [PA-DE] |  |  |  |  |  | 305 | decomposition start temperature ([1]; TG in the air): 100 °C; sublimation properties ([1]; TG in the air): no sublimation properties |
